Experimental data published in US10183015B2, “Heterocyclic compounds and methods of use” (Medivation Technologies LLC, priority 2015, dated 2019).
“And” between values parts separate entries of the source, which are not always exact repeats. Equal values may be shown once.

System: diet-induced NASH obese insulin resistant mice
Assay: DIN mouse model: blood glucose, plasma insulin, HOMA-IR;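 as to blood glucose day 0: blood glucose in mg/dL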;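 as to blood glucose day 42: blood glucose in mg/dL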;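 as to blood glucose day 70: blood glucose in mg/dL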
Type: in vivo
Details: for HOMA-IR index reduction / HOMA-IR day 0 / blood glucose day 0 / plasma insulin day 0: 20 mg/kg; for HOMA-IR day 0 / blood glucose day 0 / plasma insulin day 0: day 0 (baseline); for HOMA-IR day 42 / blood glucose day 42 / plasma insulin day 42: day 42, 20 mg/kg; for HOMA-IR day 70 / blood glucose day 70 / plasma insulin day 70: day 70, 20 mg/kg
Protocol: Male C57Bl/6J mice (8 weeks old) were housed in enriched ventilated cages (31×12.5×12.7 cm) throughout the experimental phase. Animals' cages litters were changed at least once a week. Animal were housed 5 per cage on inverted 12-hour light cycle (at 09:00 am lights off), 22±2° C. and 55±10% relative humidity. The acclimation period was 20 days. During the acclimation period, all mice were fed a standard diet (RM1 (E) 801492, SDS) and tap water ad libitum. After the acclimation period, mice were fed with the DIN diet (60% fat, cholesterol enriched) and fructose-enriched tap water ad libitum until the end of the experiment.
At 6 weeks of diet, mice were 4-hour fasted (09:00 am to 1:00 pm) and blood (150 μl/EDTA) was collected at 01:00 pm by retro-orbital bleeding under isoflurane anesthesia. Mice were then allocated in 2 homogenous groups (n=12/group) according to their plasma levels of ALT (average levels: 685U/L), AST (average levels: 627U/L) and HOMA-IR index (average value: 4.7), into 2 homogenous groups (see values at day 0 in Tables 15A and 15B ALT/AST and Tables 16A and 16B for HOMA-IR). Mice were then treated once daily by oral gavage with vehicle (Group 1) or Compound #37 at 20 mg/kg (Group 2) for 70 days.
To investigate whether Compound #37 improves pre-existing steatosis/NASH pathology, a study was conducted using a 16-week diet-induced NASH mouse model. In this model, mice develop steatosis that progresses with inflammation and fibrosis that mimic many of the observed pathologies in human nonalcoholic fatty liver disease (NAFLD) and NASH (Hebbard & George, 2010). For 6 weeks, mice were fed a high-fat, high-cholesterol diet and provided drinking water containing fructose to induce liver pathology (Charlton et al, 2011). After 6 weeks, the mice were divided into 2 groups with similar mean aspartate aminotransferase (AST) and alanine aminotransferase (ALT) values (n=12 mice), although it should be noted that AST and ALT concentrations within both groups were higher and with greater variability than anticipated (e.g., mean ALT 677 U/L [SD, 401 U/L] in the vehicle control group and 693 U/L [SD, 365 U/L] in the Compound #37 group). After the animals were divided into 2 groups, the diet was continued for 10 additional weeks during which time 1 group received vehicle and the other was treated with 20 mg/kg/day Compound #37.

CC(C)Cc1cc(-c2nc(-c3ccc(NS(=O)(=O)C(F)(F)F)cc3Cl)cs2)ccn1 [Compound 37, N-(3-chloro-4-(2-(2-isobutylpyridin-4-yl)thiazol-4-yl)phenyl)-1,1,1-trifluoromethanesulfonamide]
HOMA-IR index reduction (day 42, not significant): 50%
HOMA-IR index reduction (day 70, not significant): 40%
HOMA-IR day 0 (group mean, n 12): 4.8 [mM × μU/mL]/22.5
blood glucose day 0 (group mean, n 12): 104 mg/dL
plasma insulin day 0 (group mean, n 12): 17 μU/mL
HOMA-IR day 0 (individual animals): 2.7 [mM × μU/mL]/22.5 and 4.1 [mM × μU/mL]/22.5 and 23.6 [mM × μU/mL]/22.5 and 2.1 [mM × μU/mL]/22.5 (2×) and 2.3 [mM × μU/mL]/22.5 (2×) and 1.9 [mM × μU/mL]/22.5 and 1.8 [mM × μU/mL]/22.5 and 3.8 [mM × μU/mL]/22.5 and 1.6 [mM × μU/mL]/22.5 and 8.8 [mM × μU/mL]/22.5
blood glucose day 0 (individual animals): 97 mg/dL and 113 mg/dL (2×) and 123 mg/dL and 106 mg/dL and 79 mg/dL and 95 mg/dL and 114 mg/dL and 102 mg/dL and 89 mg/dL and 112 mg/dL and 103 mg/dL
plasma insulin day 0 (individual animals): 11.3 μU/mL and 14.7 μU/mL and 77.6 μU/mL and 8.1 μU/mL and 11.9 μU/mL and 6.9 μU/mL and 7.5 μU/mL (2×) and 13.6 μU/mL and 8.4 μU/mL and 31.9 μU/mL and 9 μU/mL
HOMA-IR day 42 (group mean, n 12): 3.7 [mM × μU/mL]/22.5
blood glucose day 42 (group mean, n 12): 133 mg/dL
plasma insulin day 42 (group mean, n 12): 11.5 μU/mL
HOMA-IR day 42 (individual animals): 3.8 [mM × μU/mL]/22.5 (2×) and 3.3 [mM × μU/mL]/22.5 and 5.0 [mM × μU/mL]/22.5 and 7.7 [mM × μU/mL]/22.5 and 2.8 [mM × μU/mL]/22.5 (3×) and 1.9 [mM × μU/mL]/22.5 and 3.7 [mM × μU/mL]/22.5 and 3.5 [mM × μU/mL]/22.5 and 3.4 [mM × μU/mL]/22.5
blood glucose day 42 (individual animals): 133 mg/dL and 139 mg/dL (2×) and 112 mg/dL and 126 mg/dL and 128 mg/dL and 132 mg/dL and 131 mg/dL and 138 mg/dL and 151 mg/dL and 140 mg/dL and 127 mg/dL
plasma insulin day 42 (individual animals): 11.6 μU/mL and 9.5 μU/mL and 18.0 μU/mL and 24.8 μU/mL and 8.9 μU/mL and 11.8 μU/mL and 5.8 μU/mL and 8.2 μU/mL (2×) and 10.0 μU/mL and 10.2 μU/mL and 10.7 μU/mL
HOMA-IR day 70 (group mean, n 11): 4.5 [mM × μU/mL]/22.5
blood glucose day 70 (group mean, n 11): 130 mg/dL
plasma insulin day 70 (group mean, n 11): 13.7 μU/mL
HOMA-IR day 70 (individual animals): 7.5 [mM × μU/mL]/22.5 and 2.6 [mM × μU/mL]/22.5 and 6.0 [mM × μU/mL]/22.5 and 5.8 [mM × μU/mL]/22.5 and 3.9 [mM × μU/mL]/22.5 and 2.8 [mM × μU/mL]/22.5 and 6.5 [mM × μU/mL]/22.5 and 2.5 [mM × μU/mL]/22.5 and 3.8 [mM × μU/mL]/22.5 and 3.1 [mM × μU/mL]/22.5 and 4.5 [mM × μU/mL]/22.5
blood glucose day 70 (individual animals): 138 mg/dL and 132 mg/dL and 135 mg/dL and 157 mg/dL and 136 mg/dL and 124 mg/dL and 127 mg/dL and 100 mg/dL and 114 mg/dL and 130 mg/dL and 141 mg/dL
plasma insulin day 70 (individual animals): 21.9 μU/mL and 8.0 μU/mL and 18.1 μU/mL and 15.1 μU/mL and 11.5 μU/mL and 9.3 μU/mL and 20.6 μU/mL and 10.3 μU/mL and 13.4 μU/mL and 9.8 μU/mL and 12.9 μU/mL
